Measurements: patent US20030187048A1, “Method for inhibiting skin lesion formation using histamine as the active ingredient” (priority 1991, published 2003)
Where “and” joins values, the source holds several entries; their conditions need not be identical. Identical values can stand only once. Like-named read-outs stand apart in the source and are kept apart here.

Experiments:
[1] = tested on: herpes zoster (shingles) lesions; details: for Burning score / Local pain score: […] IEP gel, scale 0 to 5
Description: The percent reduction in complete healing time as compared to a usual episode was evaluated comparing the two patients who received active gel concentrations to the two patients receiving placebo gel. […] Subjects were assigned randomly to one of two active ingredient levels being evaluated, 0.0% and 0.015% by weight of active ingredient.
Each patient was contacted weekly for his or her estimate of the symptomatic relief of 2 common symptoms associated with herpes zoster (shingles) as well as the patient's interpretation of total healing of the episode. In an attempt to quantify responses, patients were asked to rate each symptom on a scale of 0 to 5 with 0 representing no evidence of the symptom and 5 representing the worst or most prominent evidence of the symptom ever for the patient. Subject compliance with the study regimen and the use of other medications was also assessed.

[2] = tested on: Giant Papillary Conjunctivitis
Description: The composition of the present invention includes initial preparation of a gel base by adding 0.8% CARBOPOL 940, which is a vinyl polymer, to distilled water. This mixture was allowed to stand for several hours until the polymer was wetted and a gel was formed. This mixture then was blended by means of a ordinary high speed mixer, such as a Lightning Labmaster II until a homogenous mixture is formed. At this point, a neutralizing and emulsifying agent such as an amino alcohol was added, forming an emulsion. […] This composition then was applied topically to various types of lesions, as subsequently described. […] Propylparaben or methylparaben may be used as a preservative. For “unidose” dispensers containing only two to three drops, no preservatives are used, as it is known that preservatives in ophthalmic solutions frequently cause undesirable side effects. The term semi-synthetic water soluble polymer as used herein includes hydroxy methylcellulose or carboxy methylcellulose. Carbopol is widely available in different viscosities.
Treatment consisted of topical ophthalmic application of both ophthalmic solution concentrations to their randomly assigned patients 2 times a day for 5 days. […] Each patient was clinically evaluated at 48 hours and 120 hours following the initiation of treatment for 2 parameters of tissue damage associated with Giant Papillary Conjunctivitis. In addition, each patient was asked to evaluate subjectively 2 symptoms associated with Giant Papillary conjunctivitis 48 hours and 120 hours after treatment initiation. The percent reduction from the initial presentation of each of the parameters of tissue damage and the initial presentation for each additional symptom evaluated was calculated from 48 and 120 hour post treatment initiation data.
Patients were randomly assigned to one of two active levels being evaluated.
Clinical evaluation was performed at 48 hours and 120 hours post treatment initiation. Each patient was asked to subjectively evaluate 2 additional symptoms associated with Giant Papillary Conjunctivitis by rating each symptom on a scale of 0 to 5 with 0 representing no evidence of symptom and 5 representing the greatest evidence of the symptom ever by the patient. Clinical evaluation of tissue damage parameters was also done using the same scale of 0 to 5. Patient compliance with the treatment regimen and the use of other medications was also evaluated.

[3] = tested on: Varicella zoster (chickenpox) lesions; details: for Mean % Reduction In Healing Time per Lesion: compared to placebo gel; for Itching score / Local pain score: scale 0 to 5; for Mean Time to Lesion Healing: placebo patients 7 days
Description: Treatment consisted of topical application three times a day for a period of five days. […] The mean percent reduction in complete healing time per average pox lesion was evaluated grouping the two patients who received active gel concentrations together and comparing to the two patients receiving placebo gel.
Subjects were assigned randomly to one of three active ingredient levels being evaluated, 0.0%, 0.0067% and G.009% by weight of active ingredient.
Each patient was contacted daily for 5 days for his or her estimate of the symptomatic relief of any symptoms associated with Varicella zoster (chickenpox) as well as the patient's interpretation of total healing of the episode in addition to the patient's description of the lesions present. In an attempt to quantify responses, patients were asked to rate each symptom each day on a scale of 0 to 5 with 0 representing no evidence of the symptom and 5 representing to worst or most prominent evidence of the symptom ever for the patient. Subject compliance with the study regimen and the use of other medications was also assessed.
Lesions were monitored for the usual progression of the typical stages seen with Varicella zoster. Typical chickenpox begins as crops of small, red papules that almost immediately develop into clear, “tear drop” vesicles on an erythematous base which are usually not umbilicated. The lesions initially contain clear fluid, but within 24 hours the contents become cloudy. once this occurs, the vesicles are easily broken and become scabbed. Successive crops of lesions appear for 3 to 4 days.

[4] = tested on: aphthous stomatitis lesions (canker sores); details: for Mean percentage decay rates of lesions for each patient: standardized over 24 hour period
Description: Treatment consisted of topical application five times per day for a period of five days., with daily evaluation by the patient and clinician. Lesion decay rates (decrease in lesion size over time) of Groups C and E were grouped together and compared to Group B, the placebo Group.
Assignment of subjects within groups to the three concentrations was unknown to the investigator.
The decay rate was calculated by first computing the percentage decrease in size of the lesion over time and then standardizing the decay rate over an exact 24 hour period.

[5] = 0.0067% ophth soln, 48 hr, per patient
[6] = 0.0067% ophth soln, 120 hr, per patient
[7] = 0.0067% ophth soln, scale 0 to 5, per patient

In the case of NCCc1c[nH]cn1 [IEP, 1H-imidazole-4-ethanamine,phosphate], the Burning score ([1]; week 2) was 3, the Local pain score ([1]; week 2) was 2 and the Burning score ([1]; week 3) was 0. It also gave a Local pain score ([1]; week 3) of 0, a Burning score ([1]; week 4) of 0 and a Local pain score ([1]; week 4) of 0. For the same molecule, the Burning score ([1]; week 5) was 0, the Local pain score ([1]; week 5) was 0 and the “Difference in percent reduction in complete healing time vs placebo” value ([1]; […] gel, p<0.05) was “significant”. For the same molecule, the Untoward reactions ([1]; topical gel […], three times a day) was “no untoward reactions”, the “Exudation, Percent Reduction from Pre-Treatment Value” [2, 5] was 50.0% and 75.0% and 100.0% and the “Itch/Burn, Percent Reduction from Pre-Treatment Value” [2, 5] was 75.0% and 80.0% and 100.0%. The “Redness, Percent Reduction from Pre-Treatment Value” [2, 5] was 50.0% and 66.67% and 100.0%, the “Contact Lens Tolerance, Percent Reduction from Pre-Treatment Value” [2, 6] was 100.0% and the “Exudation, Percent Reduction from Pre-Treatment Value” [2, 6] was 100.0%. For the same molecule, the “Itch/Burn, Percent Reduction from Pre-Treatment Value” [2, 6] was 100.0%, the “Redness, Percent Reduction from Pre-Treatment Value” [2, 6] was 100.0% and the “Conjunctival Injection (redness), Value at 120 Hours” value [2, 7] was 0. For the same molecule, the “Contact Lens Tolerance, Value at 120 hours” value [2, 7] was 0, the “Exudation, Value at 120 Hours” value [2, 7] was 0 and the “Itching and Burning, Value at 120 hours” value [2, 7] was 0. The “Difference in percent reduction of tissue damage parameters and symptoms vs placebo ophthalmic solution” value ([2]; 0.0067% ophthalmic solution, except contact lens tolerance at 48 hours) was “either significant (p<0.05) or highly significant (p<.O1)”, the “Decrease in size of the papilla” value ([2]; end of the 5 day treatment period, any of the patients) was “a significant decrease in size of the papilla was not noted” and the Untoward effects ([2]; in vivo) was “no untoward effects”. The “Mean % Reduction In Healing Time per Lesion” value ([3]; 0.0067% IEP gel) was 50.0%, the Itching score ([3]; 0.0067% IEP gel, day 1) was 2 and the Local pain score ([3]; 0.0067% IEP gel, day 1) was 2. The Itching score ([3]; 0.0067% IEP gel, day 2) was 0, the Local pain score ([3]; 0.0067% IEP gel, day 2) was 1 and the Itching score ([3]; 0.0067% IEP gel, day 3) was 0. For the same molecule, the Local pain score ([3]; 0.0067% IEP gel, day 3) was 0, the Itching score ([3]; 0.0067% IEP gel, day 4) was 0 and the Local pain score ([3]; 0.0067% IEP gel, day 4) was 0. For the same molecule, the Itching score ([3]; 0.0067% IEP gel, day 5) was 0, the Local pain score ([3]; 0.0067% IEP gel, day 5) was 0 and the “Mean Time to Lesion Healing” value ([3]; 0.0067% gel) was 3.5 days. For the same molecule, the “Mean % Reduction In Healing Time per Lesion” value ([3]; 0.009% IEP gel) was 64.28%, the Itching score ([3]; 0.009% IEP gel, day 1) was 2 and the Local pain score ([3]; 0.009% IEP gel, day 1) was 3. For the same molecule, the Itching score ([3]; 0.009% IEP gel, day 2) was 0, the Local pain score ([3]; 0.009% IEP gel, day 2) was 1 and the Itching score ([3]; 0.009% IEP gel, day 3) was 0. For the same molecule, the Local pain score ([3]; 0.009% IEP gel, day 3) was 0, the Itching score ([3]; 0.009% IEP gel, day 4) was 0 and the Local pain score ([3]; 0.009% IEP gel, day 4) was 0. The Itching score ([3]; 0.009% IEP gel, day 5) was 0, the Local pain score ([3]; 0.009% IEP gel, day 5) was 0 and the “Mean Time to Lesion Healing” value ([3]; 0.009% gel) was 2.5 days. For the same molecule, the “Difference in mean percent reduction in complete healing time per lesion vs placebo” value ([3]; combined 0.0067% and 0.009% groups, p<0.05) was “significant”, the “Progression of lesion stages” value ([3]; lesions treated with 0.0067% and 0.009% gel) was “did not progress through the usual progression of lesions stages” and the Untoward reactions ([3]; topical gel 0.0067%, 0.009%, three times a day for five days) was “no untoward reactions”. For the same molecule, the “Mean percentage decay rate of lesions, Conc. Mean” value ([4]; 0.0067% gel, 3 patients) was 74.1%, the “Mean percentage decay rates of lesions for each patient” value ([4]; 0.0067% gel) was 100.0% and 53.8% and 68.4% and the “Mean percentage decay rate of lesions, Conc. Mean” value ([4]; 0.0275% gel, 2 patients) was 83.5%. For the same molecule, the “Mean percentage decay rates of lesions for each patient” value ([4]; 0.0275% gel) was 104.0% and 62.9%, the “Reducing lesion size over time vs placebo (analysis of variance)” value ([4]; Groups C and E (0.0067%, 0.0275%) combined, p<.O1) was “significantly more effective” and the “Untoward events or significant complications” value ([4]; in vivo) was “No untoward events or significant complications”.
